Laboratory results reported in ChEMBL document CHEMBL2390880, “Influence of 4- or 5-substituents on the pyrrolidine ring of 5-[1-(2-methoxymethylpyrrolidinyl)sulfonyl]isatin derivatives on their inhibitory activities towards caspases-3 and -7” (Eur J Med Chem, 2013).

Key:
Caspase-3 = target: T1, Caspase-3 (Homo sapiens, UniProt P42574); assay: Inhibition of human recombinant caspase-3 using Ac-DEVD-AMC as substrate assessed as accumulation of AMC preincubated for 10 mins followed by substrate addition measured after 10 mins by fluorescence assay
T1 sequence (P42574 whole entry): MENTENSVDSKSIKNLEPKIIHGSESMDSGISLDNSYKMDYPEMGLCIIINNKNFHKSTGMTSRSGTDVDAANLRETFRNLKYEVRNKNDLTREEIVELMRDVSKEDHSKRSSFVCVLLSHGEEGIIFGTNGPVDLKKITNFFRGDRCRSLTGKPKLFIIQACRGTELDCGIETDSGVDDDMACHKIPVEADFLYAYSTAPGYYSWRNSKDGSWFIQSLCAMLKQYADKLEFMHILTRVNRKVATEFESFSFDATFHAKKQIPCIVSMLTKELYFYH

Caspase-7 = target: T2, Caspase-7 (Homo sapiens, UniProt P55210); assay: Inhibition of human recombinant caspase-7 using Ac-DEVD-AMC as substrate assessed as accumulation of AMC preincubated for 10 mins followed by substrate addition measured after 10 mins by fluorescence assay
T2 sequence (P55210 whole entry): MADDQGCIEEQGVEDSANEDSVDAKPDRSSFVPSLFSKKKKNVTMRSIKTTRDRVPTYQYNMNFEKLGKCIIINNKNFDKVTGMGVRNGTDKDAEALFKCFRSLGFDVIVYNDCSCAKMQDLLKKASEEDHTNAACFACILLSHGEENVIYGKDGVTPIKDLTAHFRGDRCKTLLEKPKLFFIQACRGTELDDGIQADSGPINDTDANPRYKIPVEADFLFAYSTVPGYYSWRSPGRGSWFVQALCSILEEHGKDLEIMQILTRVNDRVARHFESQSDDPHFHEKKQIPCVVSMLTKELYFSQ

Row | Structure (SMILES) | IC50 (Caspase-3) [µM] | IC50 (Caspase-7) [µM]
1 | COC[C@@H]1C[C@H](C(F)(F)F)CN1S(=O)(=O)c1ccc2c(c1)C(=O)C(=O)N2 | 101 | –
2 | CCCCN1C(=O)C(=O)c2cc(S(=O)(=O)N3C[C@@H](OCCOCCOCCOCCO)C[C@H]3COC)ccc21 | > 500 | > 500
3 | COC[C@@H]1C[C@H](OC)CN1S(=O)(=O)c1ccc2c(c1)C(=O)C(=O)N2 | > 500 | > 500
4 | COC[C@H]1CC[C@@H](COC)N1S(=O)(=O)c1ccc2c(c1)C(=O)C(=O)N2 | > 500 | > 500
5 | COC[C@@H]1C[C@@H](OCCOCCOCCOCCO)CN1S(=O)(=O)c1ccc2c(c1)C(=O)C(=O)N2 | > 500 | > 500
6 | COC[C@@H]1C[C@@H](OC)CN1S(=O)(=O)c1ccc2c(c1)C(=O)C(=O)N2 | > 500 | > 500
7 | COC[C@@H]1CC[C@@H](COC)N1S(=O)(=O)c1ccc2c(c1)C(=O)C(=O)N2 | > 500 | > 500
8 | COC[C@@H]1C[C@H](OCCOCCOCCOCCO)CN1S(=O)(=O)c1ccc2c(c1)C(=O)C(=O)N2 | > 500 | > 500
9 | COC[C@@H]1C[C@@H](C(F)(F)F)CN1S(=O)(=O)c1ccc2c(c1)C(=O)C(=O)N2 | > 500 | > 500
